pIC50: −log10 of the molar value.
Experiments:
[1] = biological target: T1, Na^+/K^+ ATPase-alpha1 isoform purified from dog kidneys (Canis lupus familiaris, UniProt P50997); experiment: Na+/K+ ATPase activity inhibition, purified dog kidney enzyme (32P-ATP hydrolysis); assay type: biochemical
T1 construct: excised from 1–3-year-old male beagle dogs; from tissue; host or cells: dog (beagle) kidney outer medulla, Jørgensen purification
Protocol: Compounds were tested in a concentration range from 10^–9 to 10^–4 M on a purified renal Na^+/K^+ ATPase preparation with a specific activity of 14 μmol/min/mg protein.
Figure 2 Na^+/K^+ ATPase activity inhibition in a dog purified enzyme preparation. All compounds were tested in a concentration range from 10^–9 to 10^–4 M in comparison to ouabain.
The inhibitory effect of compounds was tested at multiple concentrations on Na^+/K^+ ATPase-alpha1 isoform purified from dog kidneys. […]
Renal Na+/K+ ATPase purification and activity
Purification of renal Na+/K+ ATPase was performed according to the method of Jørgensen2. Kidneys were excised from 1–3-year-old male beagle dogs, obtained from the General Pharmacology Department of Sigma-tau, Pomezia, Italy, under pentobarbital anesthesia. Kidneys were sliced and the outer medulla was dissected, pooled and suspended (1g in 10 ml) in a sucrose-histidine solution, containing 250 mM sucrose, 30 mM histidine and 5 mM EDTA, pH 7.2 and homogenized. The homogenate was centrifuged at 6,000 g for 15 min, the supernatant was decanted and centrifuged at 48,000 g for 30 min. The pellet was suspended in the sucrose-histidine buffer and incubated for 20 min with a sodium-dodecyl-sulphate (SDS) solution, dissolved in a gradient buffer, containing 25 mM imidazole and 1 mM EDTA, pH 7.5. The sample was layered on the top of a sucrose discontinuous gradient (10, 15 and 29.4%) and centrifuged at 60,000 g for 115 min. The final pellet was suspended in the gradient buffer.
Na+/K+ ATPase activity was assayed by measuring 32P-ATP hydrolysis, as previously described3.
Increasing concentrations of the standard ouabain, or tested compound, were incubated with 0.3 μg of purified dog kidney enzyme for 10 min at 37°C in 120 μl final volume of a medium, containing 140 mM NaCl, 3 mM MgCl2, 50 mM Hepes-Tris, 3 mM ATP, pH 7.5. Then, 10 μl of incubation solution containing 10 mM KCl and 20 nCi of 32P-ATP (3-10 Ci/mmol, Perkin Elmer) were added, the reaction continued for 15 min at 37°C and was stopped by acidification with 20% ice-cold perchloric acid.
32P was separated by centrifugation with activated Charcoal (Norit A, Serva) and the radioactivity was measured. Effects of increasing concentrations of the tested compound were compared to ouabain, as positive standard, and to vehicle (control) at 37°C. The inhibitory activity was expressed as percent of activity in control. The concentration of compound causing 50% inhibition of the Na+/K+ ATPase activity (IC50) was calculated by non-linear fitting of data points (KaleidagraphTM, Sinergy Software). […]

[2] = biological target: T2, SERCA2a (Cavia porcellus, UniProt A0A286XFU8); experiment: SERCA2a ATPase activity, Ca2+ dependency in cardiac SR microsomes from healthy guinea pigs; assay type: biochemical, guinea pig; settings: for SERCA2a KdCa reduced by / SERCA2a Vmax: 1 nM
T2 construct: from tissue; host or cells: guinea pig left ventricle, SR-enriched microsomes
T2 sequence (A0A286XFU8 entry or part of it): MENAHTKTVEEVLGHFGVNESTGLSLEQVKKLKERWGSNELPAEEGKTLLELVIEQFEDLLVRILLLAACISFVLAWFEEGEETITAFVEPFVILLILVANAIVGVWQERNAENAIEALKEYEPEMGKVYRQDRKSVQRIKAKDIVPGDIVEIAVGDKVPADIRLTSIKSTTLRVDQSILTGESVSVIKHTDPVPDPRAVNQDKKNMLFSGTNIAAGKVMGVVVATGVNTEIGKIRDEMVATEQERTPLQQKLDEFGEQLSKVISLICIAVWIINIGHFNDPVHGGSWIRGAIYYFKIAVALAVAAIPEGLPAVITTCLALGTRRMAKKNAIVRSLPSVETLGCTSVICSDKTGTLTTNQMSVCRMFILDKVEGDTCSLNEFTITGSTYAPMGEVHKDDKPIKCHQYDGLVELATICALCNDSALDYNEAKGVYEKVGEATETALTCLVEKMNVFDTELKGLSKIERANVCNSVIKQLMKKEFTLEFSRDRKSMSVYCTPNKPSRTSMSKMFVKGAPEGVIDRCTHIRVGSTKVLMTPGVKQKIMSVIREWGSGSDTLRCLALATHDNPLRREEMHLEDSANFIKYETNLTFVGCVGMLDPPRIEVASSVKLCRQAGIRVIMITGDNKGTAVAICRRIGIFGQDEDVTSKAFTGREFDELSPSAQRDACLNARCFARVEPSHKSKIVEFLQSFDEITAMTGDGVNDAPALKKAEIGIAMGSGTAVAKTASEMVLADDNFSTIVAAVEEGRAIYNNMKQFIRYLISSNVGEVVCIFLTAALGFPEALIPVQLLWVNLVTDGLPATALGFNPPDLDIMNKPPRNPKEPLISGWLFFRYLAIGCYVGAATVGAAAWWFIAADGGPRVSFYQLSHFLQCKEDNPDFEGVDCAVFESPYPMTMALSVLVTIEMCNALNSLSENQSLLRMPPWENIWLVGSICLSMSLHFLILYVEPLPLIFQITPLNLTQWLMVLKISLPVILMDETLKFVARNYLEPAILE
Protocol: SERCA2a ATPase activity was assessed in SR preparations from healthy guinea pig hearts. Ca^2+ dependency of ATPase activity was measured, and kinetic parameters (KdCa and Vmax) were estimated at compound concentrations of 10 and 100 nM.
[…] […] Data are the mean ± SEM. *p < 0.05 (one-way RM ANOVA plus post hoc Tukey’s multiple comparisons or paired t-test).
Measurements were performed in cardiac SR microsomes (guinea pig) and in whole tissue homogenates (rat). Cardiac preparations included SERCA2a and PLN. To test for PLN involvement in the effect of compounds, SERCA1 activity was measured in PLN-free microsomes (from guinea pig skeletal muscle) before and after reconstitution with the synthetic PLN1–32 inhibitory fragment at a ratio of 300:1 for PLN/SERCA. […] Either an increase in Vmax (rat) or a decrease in KdCa (increased Ca^2+ affinity) (guinea pig) stands for enhancement of SERCA function. […]
Left ventricles (LV) were dissected from rat and guinea -pig of healthy and failing preparations and frozen until use. Tissues were homogenized, subjected to centrifugation to obtain SR -enriched microsomes and sarcomeric proteins were extracted, as previously described 4.
In the case of guinea-pig hearts, LV tissues were homogenized in 4 volumes of 10 mM NaHCO3, 1 mM PMSF, 10 μg/ml aprotinin and leupeptin (pH 7) and centrifuged at 12,000g for 15 minutes. Supernatants were filtered and centrifuged at 100,000 g for 30 min. Contractile proteins were extracted by suspending the pellets with 0.6 M KCl, 30 mM histidine, pH 7 and further centrifugation at 100,000 g for 30 min.
Final pellets were reconstituted with 0.3 M sucrose, 30 mM histidine, pH 7, to obtain SR-enriched […]
SERCA2a ATPase activity was measured as the rate of 32P-ATP release at multiple Ca2+ concentrations (100-2000 nM) in the absence and presence of tested compounds, as previously described5. Increasing concentrations of each compound were pre-incubated with 2 μg of cardiac preparations for 5 min at 4° C in 80 μl of a solution containing 100 mM KCl, 5 mM MgCl2, 1 μM A23187, 20 mM Tris, pH 7.5. Then, 20 μl of 5 mM Tris-ATP containing 50 nCi of 32P-ATP (3-10 Ci/mmol, Perkin Elmer) were added. The ATP hydrolysis was continued for 15 min at 37°C and the reaction was stopped by acidification with 100 μl of 20% ice-cold perchloric acid. 32P was separated by centrifugation with activated charcoal (Norit A, Serva) and the radioactivity was measured. SERCA2a-dependent ATPase activity was identified as the portion of total hydrolytic activity inhibited by cyclopiazonic acid (CPA, 10 µM). Technical replicates were used to ensure the reliability of single values. […]

[3] = test system: SR Ca^2+ uptake in STZ cardiomyocytes; experiment: SR loading protocol (SR Ca2+ uptake under NCX inhibition) in patch-clamped STZ myocytes; assay type: cell-based, rat; settings: 1 μM
[4] = Acute toxicity (LD50) in mice; settings: male, Albino Swiss CD-1, mouse, in vivo
Protocol: Acute toxicity (LD50) was preliminarily evaluated in mice following i.v. and oral drug administration.
Control animals received the vehicle only.
Drug toxicity studies in mice
Acute toxicity was determined in CD1 mice. Separate mice groups were either orally treated, or
intravenously injected, with increasing doses of the tested substance to identify the dose causing 50%
mortality (LD50). Acute mortality was assessed at 30 min after compound administration; survival was

C[C@]12CC[C@H](CC(=O)O)C[C@@H]1[C@@H](O)C[C@@H]1[C@@H]2CC[C@]2(C)C(=O)CC[C@@H]12 [Compound 8]
pIC50 [1]: < 4.00 | SERCA2a KdCa reduced by [2]: 14% | SERCA2a Vmax [2]: without affecting Vmax

C[C@]12CC[C@H](CCCC(=O)O)C[C@@H]1[C@@H](O)C[C@@H]1[C@@H]2CC[C@]2(C)C(=O)CC[C@@H]12 [Compound 5]
pIC50 [1]: < 4.00 | SERCA2a KdCa reduced by [2]: 16% | SERCA2a Vmax [2]: without affecting Vmax | SERCA2a Stimulation @100 nM (DELTA% KdCa) ([2]; 100 nM): -21% | Ca2+ transient (CaT) decay time constant [3]: sharply accelerated Ca^2+ transient (CaT) decay | CaT amplitude [3]: not significantly affected | excitation release (ER) gain [3]: increased excitation release (ER) gain | LD50 at 24 h ([4]; iv): 300 mg/kg | LD50 at 24 h ([4]; po): > 800 mg/kg
